Experimental data taken from patent US6723702B2, “Use of relaxin treat diseases related to vasoconstriction” (RAS Medical, Inc., priority 2000, dated 2004).

Assays:
[1] = Serum rhRLX, quantitative sandwich immunoassay (Example 2); type: in vivo, rat; details: 4 μg/hour
From the text: The technique of urine collection has proven to be reliable. Conrad and Colpoys (1986) J. Clin. Invest. 77:236-245; Danielson and Conrad (1995) J. Clin. Invest. 96:482-490; and Danielson and Conrad (1996) Circ. Res. 79:1161-1166. Indeed, after reaching steady-state in this study, the excretion rates of IN and PAH were 91±3 and 100±4% of their respective infusions. After measuring baseline mean arterial pressure and renal function, an osmotic minipump (model 2ML1, Alza Co., Palo Alto Calif.) containing either recombinant human relaxin (rhRLX; n=12 rats) or vehicle (n=7) was implanted subcutaneously on the back using light ether anesthesia. […] Five days later, mean arterial pressure (MAP), glomerular filtration rate (GFR), effective renal plasma flow (ERPF), and other parameters were again assessed as describe above. At this time, the excretion rates of IN and PAH were 91±3 and 98±2% of their respective infusion rates. […]
Inulin concentration in plasma and urine was measured by the anthrone method, and PAH was determined by the method of Bratton and Marshall as modified by Smith. […] Plasma sodium was measured by a Kodak Ektachem Instrument (Rochester, N.Y.). Plasma osmolality was determined by freezing point depression (Advanced Osmometer, Model 3MO, Advanced Instruments, Needham Heights Mass.). […] The rhRLX in serum was measured using a quantitative sandwich immunoassay, again in a blinded fashion. […]

[2] = tested on: human primary umbilical vein, aortic, foreskin, and pulmonary endothelial cells; assay: 3H-thymidine uptake, human endothelial cells; type: cell-based; details: serum-free medium
Experimental: Endothelial cells were derived from explant cultures of human neonatal foreskin and rat aorta. Primary human endothelial cells from umbilical vein, aorta, and lung were purchased from Clonetics-BioWhittaker Corporation (San Diego, Calif.) and cultured according to vendor instructions. ^3H-thymidine uptake was performed, as previously described, in serum-free medium. Unemori et al. (1994) Exp. Cell Res. 21:166-171.
(§1) Relaxin was then assayed for the ability to induce proliferation of endothelial cells directly. Relaxin's potential mitogenic effect was tested on human primary umbilical vein, aortic, foreskin, and pulmonary endothelial cells, as well as rat aortic endothelial cells. […] Alterations in other aspects of endothelial cell phenotype that are believed to correlate with angiogenesis were also tested. Relaxin had no effect on collagen expression, judged by SDS-PAGE of ^3H-proline-labeled cellular proteins; or metalloproteinase or tissue inhibitor of metalloproteinase-1 secretion, assessed by gelatin zymography. […] Therefore, relaxin had no apparent effect directly on endothelial cells.

endothelial cells = assay: Other aspects of endothelial cell phenotype (collagen, metalloproteinase/TIMP-1, invasion, tube formation, chemotaxis); type: cell-based
Experimental: as §1

conscious rats = assay: Ringer's solution time control during chronic infusion of porcine RLX; type: in vivo, rat; details: RLX 4 μg/hour s.c. day 5
Experimental: At least 7 days after the implantation of vascular and bladder catheters, osmotic minipumps containing either porcine RLX (4 μg/hour) or vehicle (Ringer's solution) were implanted in intact, female rats (n=7 and 6 rats, respectively). Renal function and MAP were measured on day 5 of relaxin infusion (three 30-minute urine and midpoint blood collections). Next, an infusion of L-NAME (2 μg/minute, a substrate competitive inhibitor of NO synthase) was administered intravenously (i.v.) by infusion pump (Model 200, KD Scientific, Boston, Mass.). Four 1-hour urine collections with midpoint blood samples were collected for the assessment of GFR, ERPF, and ERVR during the L-NAME administration. Identical procedures were performed on additional animals chronically administered porcine RLX (n=5) or vehicle (n=5), except that ANG II (3 ng/minute) was infused rather than L-NAME. Finally, another four, age-matched control rats were administered Ringer's solution instead of either L-NAME or ANG II on day 5 of porcine RLX infusion.
Another group of rats chronically treated with porcine RLX was administered Ringer's solution instead of L-NAME or ANG II, and thus served as time controls. Neither MAP nor any of the renal parameters were consistently altered over the 6 hours or so of vehicle infusion, as shown in Table 3. Values are provided as mean±SEM. Relaxin, RLX. n=4 rats. Ringer's solution was infused at the same flow rate as L-NAME (Table 1) or ANG II (Table 2), 12.5 μl/min. RLX was infused at 4 μg/hour by osmotic minipump s.c.

[3] = Baseline before Ringer's solution
[4] = Ringer's solution 12.5 μl/min, 60 min
[5] = Ringer's solution 12.5 μl/min, 120 min
[6] = Ringer's solution 12.5 μl/min, 180 min
[7] = Ringer's solution 12.5 μl/min, 240 min

Question: Which “mean serum concentration of rhRLX” value ([1]; female rats, day 5) does the source give for “rhRLX: recombinant human relaxin, identical in amino acid sequence to the product of the human H2 gene; A chain of 24, B chain of 29 amino acids” here?
Answer: Its value is 16.6 ± 1.5 ng/mL.

Question: And the “mean serum concentration of rhRLX” value ([1]; male rats, day 5, n=12)?
Answer: Its value is 12.3 ± 0.7 ng/mL.

Question: And the 3H-thymidine uptake [2]?
Answer: The 3H-thymidine uptake was “did not alter”.

Question: What about the chemotaxis in vitro (endothelial cells) of the same substance?
Answer: Its chemotaxis in vitro is “nor did it induce chemotaxis”.

Question: What about the collagen expression (endothelial cells; SDS-PAGE of 3H-proline-labeled cellular proteins) of the same substance?
Answer: The collagen expression was “no effect”.

Question: What about the “ability of endothelial cells to invade the substrate or to form tube structures” value (endothelial cells; Type I collagen or Matrigel substrate) of the same substance?
Answer: Its value is “no effect”.

Question: And the “metalloproteinase or tissue inhibitor of metalloproteinase-1 secretion” value (endothelial cells; gelatin zymography)?
Answer: The value was “no effect”.

Question: Which results are given for “Porcine RLX: lyophilized, purified porcine relaxin (Sherwood and O'Byrne 1974), dissolved in Ringer's solution”?
Answer: ERPF (conscious rats; [3]): 12,927; ERVR (conscious rats; [3]): 5.93; GFR (conscious rats; [3]): 2997; MAP (conscious rats; [3]): 119; ERPF (conscious rats; [4]): 12,630; ERVR (conscious rats; [4]): 6.19; GFR (conscious rats; [4]): 3008; MAP (conscious rats; [4]): 123; ERPF (conscious rats; [5]): 12,347; ERVR (conscious rats; [5]): 6.40; GFR (conscious rats; [5]): 3086; MAP (conscious rats; [5]): 121; ERPF (conscious rats; [6]): 12,353; ERVR (conscious rats; [6]): 6.52; GFR (conscious rats; [6]): 3077; MAP (conscious rats; [6]): 122; ERPF (conscious rats; [7]): 12,090; ERVR (conscious rats; [7]): 6.53; GFR (conscious rats; [7]): 3223; MAP (conscious rats; [7]): 121
